# Data as given in paper PMC10745882, “Investigation of Drug-Interaction Potential for Arthritis Dietary Supplements: Chondroitin Sulfate, Glucosamine, and Methylsulfonylmethane” (Molecules, 2023).
# Read-outs that look alike come from different tables or passages of the source.
# Experiments:
# CYPs [1] = details: drugs used for OA; ref as in Refs of Table 4, 17-36; cited from earlier work
# [2] = test system: seven CYP isozymes (CYP1A2, CYP2A6, CYP2B6, CYP2C9, CYP2C19, CYP2D6, CYP3A4); test: CYP inhibition assay in human liver microsomes, statements on all tested isozymes; format: in vitro ADME
# Experimental: (§1) For the experimental method, the reference method was used. Briefly, incubation mixtures were composed of 0.5 mg/mL human liver microsomes; varying concentrations of CS in DW (0.1, 0.3, 1, 3, 10, 30, 100, and 200 µM) or MSM in DW (0.1, 0.3, 1, 3, 10, 30, 100, 300, and 1000 µM) or GCS in DMSO (0.1, 0.3, 1, 3, 10, 30, 100, 300, and 1000 µM); a substrate mixture in DMSO (40 µM phenacetin for CYP1A2; 2.5 µM coumarin for CYP2A6; 80 µM bupropion for CYP2B6; 10 µM diclofenac for CYP2C9; 80 µM [±]-mephenytoin for CYP2C19; 5 µM dextromethorphan for CYP2D6; 2.5 µM midazolam and 30 µM testosterone for CYP3A4); and an NADPH generating system (NGS; 0.1 M glucose-6-phosphate, 10 mg/mL β-NADP^+, and 1 U/mL glucose-6-phosphate dehydrogenase) in a total volume of 200 µL potassium phosphate buffer (0.1 M, pH 7.4). The reaction mixture, excluding NGS, underwent pre-incubation at 37 °C for 5 min, followed by further incubation with NGS for 30 min in a water bath. Well-established selective CYP inhibitors were employed as positive controls (40 µM ketoconazole for CYP3A4, 50 µM furafyllin for CYP1A2, 10 µM quinidine for CYP2D6, 125 µM ticlopidine for CYP2C19 and CYP2B6, 10 µM 8-methoxsalen for CYP2A6, and 10 µM sulfaphenazole for CYP2C9). Post incubation, the reaction was halted by adding 50 µL ice-cold 1% formic acid acetonitrile. After centrifugation at 13,200 rpm for 5 min, the supernatant was collected from the sample and subjected to analysis via an LC-MS/MS system. All experiments were performed in triplicate.
# For the experimental method, the reference method was used. The LC-MS/MS system utilized in this study consisted of an Agilent 1260 binary pump HPLC system coupled with the Agilent 6460 Triple Quadrupole mass spectrometer (Agilent Technologies, Santa Clara, CA, USA), featuring an electrospray ionization source. Chromatographic separation was achieved using a Fortis C8 column (2.1 × 100 mm, 5.0 µm; Fortis Technologies Ltd., Neston, UK). The HPLC mobile phases comprised (A) 0.1% formic acid and (B) 0.1% formic acid in 90% acetonitrile. […]
# CYPs [3] = test system: CYPs; parameters: method as in PMID 33096940; details: in vivo mice, after the administration of MSM; cited from earlier work
# [4] = parameters: method as in PMID 16942821, PMID 37489348, PMID 31331587; details: typical doses as monotherapy; cited from earlier work
# CYP3A4(M) = target: T1, CYP3A4(M) (Homo sapiens, UniProt P08684); test: CYP inhibition assay in human liver microsomes (LC-MS/MS cocktail), midazolam to 1-OH-midazolam; format: in vitro ADME
# T1 construct: Pooled human liver microsomes were purchased from BD Gentest; tissue BD Gentest; host or cells: pooled human liver microsomes
# Experimental: For the experimental method, the reference method was used. […] The reaction mixture, excluding NGS, underwent pre-incubation at 37 °C for 5 min, followed by further incubation with NGS for 30 min in a water bath. […] Post incubation, the reaction was halted by adding 50 µL ice-cold 1% formic acid acetonitrile. After centrifugation at 13,200 rpm for 5 min, the supernatant was collected from the sample and subjected to analysis via an LC-MS/MS system. All experiments were performed in triplicate.
# For the experimental method, the reference method was used. […] The HPLC mobile phases comprised (A) 0.1% formic acid and (B) 0.1% formic acid in 90% acetonitrile. […] The total run time was 11.0 min, and the injection volume was 5 µL. Mass detection was conducted in the positive ion mode using multiple reaction monitoring (MRM). Specific MRM transitions for each analyte are detailed in Table S4.
# [5] = parameters: method as in doi:10.4172/2155-9600.1000748, PMID 16168682, PMID 19912983; details: cited from earlier work
# CYP3A4(T) = target: T2, CYP3A4(T) (Homo sapiens, UniProt P08684); test: CYP inhibition assay in human liver microsomes (LC-MS/MS cocktail), testosterone to 6-β-OH-Testosterone; format: in vitro ADME
# T2 construct: Pooled human liver microsomes were purchased from BD Gentest; tissue BD Gentest; host or cells: pooled human liver microsomes
# Experimental: as §1
# For the experimental method, the reference method was used. The LC-MS/MS system utilized in this study consisted of an Agilent 1260 binary pump HPLC system coupled with the Agilent 6460 Triple Quadrupole mass spectrometer (Agilent Technologies, Santa Clara, CA, USA), featuring an electrospray ionization source. Chromatographic separation was achieved using a Fortis C8 column (2.1 × 100 mm, 5.0 µm; Fortis Technologies Ltd., Neston, UK). The HPLC mobile phases comprised (A) 0.1% formic acid and (B) 0.1% formic acid in 90% acetonitrile. A gradient elution method was employed with an initial solvent B concentration of 15% and a flow rate of 0.25 mL/min. […] The total run time was 11.0 min, and the injection volume was 5 µL. Mass detection was conducted in the positive ion mode using multiple reaction monitoring (MRM). Specific MRM transitions for each analyte are detailed in Table S4.
# CYP2C9 = test system: CYP2C9; parameters: method as in PMID 34821124, PMID 29488228; details: previous studies; cited from earlier work
# CYP2D6 = target: T3, CYP2D6 (Homo sapiens, UniProt P10635); parameters: method as in PMID 34821124, PMID 29488228; details: previous studies; cited from earlier work
# T3 construct: Pooled human liver microsomes were purchased from BD Gentest; tissue BD Gentest; host or cells: pooled human liver microsomes
# [6] = interaction case, co-administration of CS and GCS with warfarin; cited from earlier work
# T2 sequence (P08684 whole entry): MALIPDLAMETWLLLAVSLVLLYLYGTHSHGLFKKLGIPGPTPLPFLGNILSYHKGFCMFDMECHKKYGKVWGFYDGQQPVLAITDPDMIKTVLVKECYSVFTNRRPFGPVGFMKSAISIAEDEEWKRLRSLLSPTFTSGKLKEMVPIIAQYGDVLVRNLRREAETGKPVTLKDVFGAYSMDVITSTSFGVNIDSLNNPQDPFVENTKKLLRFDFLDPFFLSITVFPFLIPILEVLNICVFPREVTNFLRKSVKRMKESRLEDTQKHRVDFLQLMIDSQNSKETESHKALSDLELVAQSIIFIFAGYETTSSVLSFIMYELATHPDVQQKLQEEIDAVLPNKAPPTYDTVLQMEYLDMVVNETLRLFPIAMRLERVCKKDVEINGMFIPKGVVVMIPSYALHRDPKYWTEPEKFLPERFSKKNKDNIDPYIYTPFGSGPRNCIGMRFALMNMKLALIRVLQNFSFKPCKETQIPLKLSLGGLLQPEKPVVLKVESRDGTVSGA
# T1 sequence (P08684 whole entry): as above
# T3 sequence (P10635 whole entry): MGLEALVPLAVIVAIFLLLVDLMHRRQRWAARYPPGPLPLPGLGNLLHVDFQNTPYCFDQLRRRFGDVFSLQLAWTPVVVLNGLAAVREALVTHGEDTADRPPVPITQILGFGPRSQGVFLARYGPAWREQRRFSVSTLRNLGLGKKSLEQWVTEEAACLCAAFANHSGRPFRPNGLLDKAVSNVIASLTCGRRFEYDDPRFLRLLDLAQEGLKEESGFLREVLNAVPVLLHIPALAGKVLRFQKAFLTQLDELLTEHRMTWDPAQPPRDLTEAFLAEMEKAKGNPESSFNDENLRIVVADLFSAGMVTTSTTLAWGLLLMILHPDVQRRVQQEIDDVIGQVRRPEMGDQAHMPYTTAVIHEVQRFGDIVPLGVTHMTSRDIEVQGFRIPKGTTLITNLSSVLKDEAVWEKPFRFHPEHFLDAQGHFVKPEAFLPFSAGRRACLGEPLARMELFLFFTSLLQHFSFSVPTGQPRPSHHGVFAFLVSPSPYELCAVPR
compound,measurement,setting,value
CC(=O)Nc1ccc(O)cc1 [Acetaminophen],Metabolism-Associated CYPs,CYPs [1],"CYP3A4 (major), CYP2El, CYP1A2, CYP2D6"
Cc1ccc(-c2cc(C(F)(F)F)nn2-c2ccc(S(N)(=O)=O)cc2)cc1 [Celecoxib],Metabolism-Associated CYPs,CYPs [1],"CYP2C9 (major), CYP3A4"
O=C(O)Cc1ccccc1Nc1c(Cl)cccc1Cl [Diclofenac],Metabolism-Associated CYPs,CYPs [1],"CYP2C8, CYP2C9 (major), CYP2C18, CYP2C19, CYP2B6, CYP3A4"
CC(C)Cc1ccc(C(C)C(=O)O)cc1 (centres unmarked) [Ibuprofen],Metabolism-Associated CYPs,CYPs [1],"CYP2C8 (major) CYP2C9 (major), CYP2C19, CYP3A4"
"CS(C)(=O)=O [MSM, methylsulfonylmethane]","inhibitory effects on CYP1A2, CYP2A6, CYP2B6, CYP2C9, CYP2C19, CYP2D6, and CYP3A4",[2],no inhibitory effects
same,inhibition or induction effects on CYPs (intrahepatic gene expressions),CYPs [3],no significant inhibition or induction effects
same,adverse effects in clinical trials,[4],do not exhibit significant adverse effects
same,"Remaining Activities (% of Control, n = 3)",CYP3A4(M); test substance 0.3 μM,93.2 ± 13.2 % of Control
same,"Remaining Activities (% of Control, n = 3)",CYP3A4(M); test substance 1 μM,97.8 ± 4.3 % of Control
same,"Remaining Activities (% of Control, n = 3)",CYP3A4(M); test substance 3 μM,96.2 ± 4.3 % of Control
same,"Remaining Activities (% of Control, n = 3)",CYP3A4(M); test substance 10 μM,96.8 ± 4.2 % of Control
same,"Remaining Activities (% of Control, n = 3)",CYP3A4(M); test substance 30 μM,96.9 ± 7.2 % of Control
same,"Remaining Activities (% of Control, n = 3)",CYP3A4(M); test substance 100 μM,96.7 ± 6.2 % of Control
same,"Remaining Activities (% of Control, n = 3)",CYP3A4(M); test substance 300 μM,97.9 ± 4.4 % of Control
same,"Remaining Activities (% of Control, n = 3)",CYP3A4(M); test substance 1000 μM,99.7 ± 4.1 % of Control
same,maximum plasma concentrations,[5]; common daily dose 2000 mg/day,~1100 µM
same,"Remaining Activities (% of Control, n = 3)",CYP3A4(T); test substance 0.3 μM,95.3 ± 2.9 % of Control
same,"Remaining Activities (% of Control, n = 3)",CYP3A4(T); test substance 1 μM,98.5 ± 4.2 % of Control
same,"Remaining Activities (% of Control, n = 3)",CYP3A4(T); test substance 3 μM,95.1 ± 3.5 % of Control
same,"Remaining Activities (% of Control, n = 3)",CYP3A4(T); test substance 10 μM,98.0 ± 2.4 % of Control
same,"Remaining Activities (% of Control, n = 3)",CYP3A4(T); test substance 30 μM,95.3 ± 1.7 % of Control
same,"Remaining Activities (% of Control, n = 3)",CYP3A4(T); test substance 100 μM,90.8 ± 3.4 % of Control
same,"Remaining Activities (% of Control, n = 3)",CYP3A4(T); test substance 300 μM,95.9 ± 4.2 % of Control
same,"Remaining Activities (% of Control, n = 3)",CYP3A4(T); test substance 1000 μM,95.2 ± 0.5 % of Control
Cc1cnc(NC(=O)C2=C(O)c3ccccc3S(=O)(=O)N2C)s1 [Meloxicam],Metabolism-Associated CYPs,CYPs [1],"CYP2C9 (major), CYP3A4"
CCOC(=O)C1(c2ccccc2)CCN(C)CC1 [Pethidine],Metabolism-Associated CYPs,CYPs [1],"CYP2B6 (major), CYP3A4 (major), CYP2C19"
COc1cccc(C2(O)CCCCC2CN(C)C)c1 (centres unmarked) [Tramadol],Metabolism-Associated CYPs,CYPs [1],"CYP2D6 (major), CYP3A4, CYP2B6"
Chondroitin sulfate [CS],inhibitory effects on CYP2C9,CYP2C9,no inhibitory effects
same,"inhibitory effects on CYP1A2, CYP2A6, CYP2B6, CYP2C9, CYP2C19, CYP2D6, and CYP3A4",[2],no inhibitory effects
same,adverse effects in clinical trials,[4],do not exhibit significant adverse effects
same,"Remaining Activities (% of Control, n = 3)",CYP3A4(M); test substance 0.1 μM,97.6 ± 3.8 % of Control
same,"Remaining Activities (% of Control, n = 3)",CYP3A4(M); test substance 0.3 μM,99.1 ± 3.1 % of Control
same,"Remaining Activities (% of Control, n = 3)",CYP3A4(M); test substance 1 μM,91.2 ± 10.6 % of Control
same,"Remaining Activities (% of Control, n = 3)",CYP3A4(M); test substance 3 μM,87.9 ± 27.9 % of Control
same,"Remaining Activities (% of Control, n = 3)",CYP3A4(M); test substance 10 μM,101.4 ± 4.9 % of Control
same,"Remaining Activities (% of Control, n = 3)",CYP3A4(M); test substance 30 μM,106.6 ± 5 % of Control
same,"Remaining Activities (% of Control, n = 3)",CYP3A4(M); test substance 100 μM,113.6 ± 8.4 % of Control
same,"Remaining Activities (% of Control, n = 3)",CYP3A4(M); test substance 200 μM,114.6 ± 2.8 % of Control
same,maximum plasma concentrations,[5]; common daily dose 1200 mg/day,approximately 70 µM
same,inhibitory effects on CYP2D6,CYP2D6,no inhibitory effects
same,INR on co-administration with warfarin,[6],elevated INR
